According to PubChem BioAssay (NCI):
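Briefly, cells in 96-well plates were exposed to five compound concentrations for 48 h, and endpoints were estimated by linear interpolation. At the GI50, growth is halved. TGI: total growth inhibition.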

Columns and labels:
Assay in all cases: NCI tumour cell line growth inhibition, 48 h
PC-3 prostate = system: PC-3 prostate
T-47D breast = system: T-47D breast
A549 NSCLC = system: A549 NSCLC
MOLT-4 leukemia = system: MOLT-4 leukemia
SF-539 CNS = system: SF-539 CNS
HT29 colon = system: HT29 colon
ACHN renal = system: ACHN renal
SW-620 colon = system: SW-620 colon
HCT-116 colon = system: HCT-116 colon
MALME-3M melanoma = system: MALME-3M melanoma
SF-295 CNS = system: SF-295 CNS
KM12 colon = system: KM12 colon
HS 578T breast = system: HS 578T breast
NCI-H23 lung = system: NCI-H23 lung
CAKI-1 renal = system: CAKI-1 renal
OVCAR-3 ovarian = system: OVCAR-3 ovarian
HCT-15 colon = system: HCT-15 colon
IGROV1 ovarian = system: IGROV1 ovarian
RPMI-8226 leukemia = system: RPMI-8226 leukemia
OVCAR-5 ovarian = system: OVCAR-5 ovarian
NCI-H522 lung = system: NCI-H522 lung
LOX IMVI melanoma = system: LOX IMVI melanoma
NCI/ADR-RES ovarian = system: NCI/ADR-RES ovarian
NCI-H226 lung = system: NCI-H226 lung
HOP-92 NSCLC = system: HOP-92 NSCLC
COLO 205 colon = system: COLO 205 colon
SNB-75 CNS = system: SNB-75 CNS
M14 melanoma = system: M14 melanoma
U251 CNS = system: U251 CNS
HL-60(TB) leukemia = system: HL-60(TB) leukemia
BT-549 breast = system: BT-549 breast
786-0 renal = system: 786-0 renal
HCC-2998 colon = system: HCC-2998 colon
MCF7 breast = system: MCF7 breast
A498 renal = system: A498 renal
NCI-H460 lung = system: NCI-H460 lung
SK-MEL-2 melanoma = system: SK-MEL-2 melanoma
HOP-62 NSCLC = system: HOP-62 NSCLC
SK-OV-3 ovarian = system: SK-OV-3 ovarian
DU-145 prostate = system: DU-145 prostate
SR leukemia = system: SR leukemia
K-562 leukemia = system: K-562 leukemia
UACC-62 melanoma = system: UACC-62 melanoma
SF-268 CNS = system: SF-268 CNS
SK-MEL-5 melanoma = system: SK-MEL-5 melanoma
EKVX NSCLC = system: EKVX NSCLC
SK-MEL-28 melanoma = system: SK-MEL-28 melanoma
OVCAR-8 ovarian = system: OVCAR-8 ovarian
MDA-MB-435 = system: MDA-MB-435
MDA-MB-468 breast = system: MDA-MB-468 breast
OVCAR-4 ovarian = system: OVCAR-4 ovarian
TK-10 renal = system: TK-10 renal
UO-31 renal = system: UO-31 renal
SN12C renal = system: SN12C renal
RXF 393 renal = system: RXF 393 renal
SNB-19 CNS = system: SNB-19 CNS
CCRF-CEM leukemia = system: CCRF-CEM leukemia
UACC-257 melanoma = system: UACC-257 melanoma
MDA-MB-231 breast = system: MDA-MB-231 breast

Cn1ncc2c(N)nc(Oc3ccccc3-c3ccccc3)nc21
GI50 (PC-3 prostate): 13.3 µM
TGI (PC-3 prostate): > 100 µM
GI50 (T-47D breast): 4.91 µM
TGI (T-47D breast): > 100 µM
GI50 (A549 NSCLC): 6.74 µM
TGI (A549 NSCLC): > 100 µM
GI50 (MOLT-4 leukemia): 4.22 µM
TGI (MOLT-4 leukemia): 34.7 µM
GI50 (SF-539 CNS): 7.68 µM
TGI (SF-539 CNS): > 100 µM
GI50 (HT29 colon): 3.4 µM
TGI (HT29 colon): 34.6 µM
GI50 (ACHN renal): 20.6 µM
TGI (ACHN renal): > 100 µM
GI50 (SW-620 colon): 3.89 µM
TGI (SW-620 colon): > 100 µM
GI50 (HCT-116 colon): 4.53 µM
TGI (HCT-116 colon): > 100 µM
GI50 (MALME-3M melanoma): 4.3 µM
TGI (MALME-3M melanoma): > 100 µM
GI50 (SF-295 CNS): 6.11 µM
TGI (SF-295 CNS): > 100 µM
GI50 (KM12 colon): 4.82 µM
TGI (KM12 colon): > 100 µM
GI50 (HS 578T breast): 5.73 µM
TGI (HS 578T breast): 41.4 µM
GI50 (NCI-H23 lung): 8.54 µM
TGI (NCI-H23 lung): > 100 µM
GI50 (CAKI-1 renal): 7.72 µM
TGI (CAKI-1 renal): > 100 µM
GI50 (OVCAR-3 ovarian): 6.61 µM
TGI (OVCAR-3 ovarian): > 100 µM
GI50 (HCT-15 colon): 3.79 µM
TGI (HCT-15 colon): > 100 µM
GI50 (IGROV1 ovarian): 8.02 µM
TGI (IGROV1 ovarian): > 100 µM
GI50 (RPMI-8226 leukemia): 3.94 µM
TGI (RPMI-8226 leukemia): 27.4 µM
GI50 (OVCAR-5 ovarian): 6.5 µM
TGI (OVCAR-5 ovarian): > 100 µM
GI50 (NCI-H522 lung): 2.21 µM
TGI (NCI-H522 lung): 7.03 µM
GI50 (LOX IMVI melanoma): 7.01 µM
TGI (LOX IMVI melanoma): > 100 µM
GI50 (NCI/ADR-RES ovarian): 3.26 µM
TGI (NCI/ADR-RES ovarian): 17.5 µM
GI50 (NCI-H226 lung): 6.65 µM
TGI (NCI-H226 lung): 97.2 µM
GI50 (HOP-92 NSCLC): 14.3 µM
TGI (HOP-92 NSCLC): > 100 µM
GI50 (COLO 205 colon): 7.05 µM
TGI (COLO 205 colon): > 100 µM
GI50 (SNB-75 CNS): 3.75 µM
TGI (SNB-75 CNS): 34.2 µM
GI50 (M14 melanoma): 4.54 µM
TGI (M14 melanoma): > 100 µM
GI50 (U251 CNS): 4.77 µM
TGI (U251 CNS): > 100 µM
GI50 (HL-60(TB) leukemia): 3.93 µM
TGI (HL-60(TB) leukemia): 30.5 µM
GI50 (BT-549 breast): 4.28 µM
TGI (BT-549 breast): 37.6 µM
GI50 (786-0 renal): 26.4 µM
TGI (786-0 renal): > 100 µM
GI50 (HCC-2998 colon): 10.2 µM
TGI (HCC-2998 colon): > 100 µM
GI50 (MCF7 breast): 3.66 µM
TGI (MCF7 breast): > 100 µM
GI50 (A498 renal): 62.2 µM
TGI (A498 renal): > 100 µM
GI50 (NCI-H460 lung): 3.87 µM
TGI (NCI-H460 lung): > 100 µM
GI50 (SK-MEL-2 melanoma): 4.36 µM
TGI (SK-MEL-2 melanoma): > 100 µM
GI50 (HOP-62 NSCLC): 32 µM
TGI (HOP-62 NSCLC): > 100 µM
GI50 (SK-OV-3 ovarian): 30.3 µM
TGI (SK-OV-3 ovarian): > 100 µM
GI50 (DU-145 prostate): 32.3 µM
TGI (DU-145 prostate): > 100 µM
GI50 (SR leukemia): 2.91 µM
TGI (SR leukemia): > 100 µM
GI50 (K-562 leukemia): 3.44 µM
TGI (K-562 leukemia): > 100 µM
GI50 (UACC-62 melanoma): 4.1 µM
TGI (UACC-62 melanoma): 36.7 µM
GI50 (SF-268 CNS): 23.7 µM
TGI (SF-268 CNS): > 100 µM
GI50 (SK-MEL-5 melanoma): 3.64 µM
TGI (SK-MEL-5 melanoma): 18.2 µM
GI50 (EKVX NSCLC): 9.41 µM
TGI (EKVX NSCLC): > 100 µM
GI50 (SK-MEL-28 melanoma): 8.4 µM
TGI (SK-MEL-28 melanoma): > 100 µM
GI50 (OVCAR-8 ovarian): 13.1 µM
TGI (OVCAR-8 ovarian): 65.1 µM
GI50 (MDA-MB-435): 1.99 µM
TGI (MDA-MB-435): 5.44 µM
GI50 (MDA-MB-468 breast): 1.74 µM
TGI (MDA-MB-468 breast): 4.92 µM
GI50 (OVCAR-4 ovarian): 19.3 µM
TGI (OVCAR-4 ovarian): > 100 µM
GI50 (TK-10 renal): 19.7 µM
TGI (TK-10 renal): > 100 µM
GI50 (UO-31 renal): 11.4 µM
TGI (UO-31 renal): > 100 µM
GI50 (SN12C renal): 7.43 µM
TGI (SN12C renal): > 100 µM
GI50 (RXF 393 renal): 10.3 µM
TGI (RXF 393 renal): 47 µM
GI50 (SNB-19 CNS): 29.3 µM
TGI (SNB-19 CNS): > 100 µM
GI50 (CCRF-CEM leukemia): 3.73 µM
TGI (CCRF-CEM leukemia): 46.3 µM
GI50 (UACC-257 melanoma): 8.36 µM
TGI (UACC-257 melanoma): > 100 µM
GI50 (MDA-MB-231 breast): 4.54 µM
TGI (MDA-MB-231 breast): > 100 µM
